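Each compound was tested at five concentrations against cells in 96-well plates for 48 hours. GI50 marks 50% less growth. TGI marks complete inhibition of growth.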
Key:
Assay in all cases: NCI tumour cell line growth inhibition, 48 h
786-0 renal = test system: 786-0 renal
A498 renal = test system: A498 renal
A549 NSCLC = test system: A549 NSCLC
ACHN renal = test system: ACHN renal
BT-549 breast = test system: BT-549 breast
CAKI-1 renal = test system: CAKI-1 renal
CCRF-CEM leukemia = test system: CCRF-CEM leukemia
COLO 205 colon = test system: COLO 205 colon
DU-145 prostate = test system: DU-145 prostate
EKVX NSCLC = test system: EKVX NSCLC
HCC-2998 colon = test system: HCC-2998 colon
HCT-116 colon = test system: HCT-116 colon
HCT-15 colon = test system: HCT-15 colon
HL-60(TB) leukemia = test system: HL-60(TB) leukemia
HOP-62 NSCLC = test system: HOP-62 NSCLC
HOP-92 NSCLC = test system: HOP-92 NSCLC
HS 578T breast = test system: HS 578T breast
HT29 colon = test system: HT29 colon
IGROV1 ovarian = test system: IGROV1 ovarian
K-562 leukemia = test system: K-562 leukemia
KM12 colon = test system: KM12 colon
LOX IMVI melanoma = test system: LOX IMVI melanoma
M14 melanoma = test system: M14 melanoma
MALME-3M melanoma = test system: MALME-3M melanoma
MCF7 breast = test system: MCF7 breast
MDA-MB-231 breast = test system: MDA-MB-231 breast
MDA-MB-435 = test system: MDA-MB-435
MOLT-4 leukemia = test system: MOLT-4 leukemia
NCI-H226 lung = test system: NCI-H226 lung
NCI-H23 lung = test system: NCI-H23 lung
NCI-H460 lung = test system: NCI-H460 lung
NCI-H522 lung = test system: NCI-H522 lung
NCI/ADR-RES ovarian = test system: NCI/ADR-RES ovarian
OVCAR-3 ovarian = test system: OVCAR-3 ovarian
OVCAR-4 ovarian = test system: OVCAR-4 ovarian
OVCAR-5 ovarian = test system: OVCAR-5 ovarian
OVCAR-8 ovarian = test system: OVCAR-8 ovarian
PC-3 prostate = test system: PC-3 prostate
RPMI-8226 leukemia = test system: RPMI-8226 leukemia
RXF 393 renal = test system: RXF 393 renal
SF-268 CNS = test system: SF-268 CNS
SF-295 CNS = test system: SF-295 CNS
SF-539 CNS = test system: SF-539 CNS
SK-MEL-2 melanoma = test system: SK-MEL-2 melanoma
SK-MEL-28 melanoma = test system: SK-MEL-28 melanoma
SK-MEL-5 melanoma = test system: SK-MEL-5 melanoma
SK-OV-3 ovarian = test system: SK-OV-3 ovarian
SN12C renal = test system: SN12C renal
SNB-19 CNS = test system: SNB-19 CNS
SNB-75 CNS = test system: SNB-75 CNS
SR leukemia = test system: SR leukemia
SW-620 colon = test system: SW-620 colon
T-47D breast = test system: T-47D breast
TK-10 renal = test system: TK-10 renal
U251 CNS = test system: U251 CNS
UACC-257 melanoma = test system: UACC-257 melanoma
UACC-62 melanoma = test system: UACC-62 melanoma
UO-31 renal = test system: UO-31 renal

## O=C(Oc1ccc[nH]c1=O)c1cc([N+](=O)[O-])cc([N+](=O)[O-])c1
786-0 renal
  GI50: > 100 µM
  TGI: > 100 µM
A498 renal
  GI50: > 100000 nM
  TGI: > 100 µM
A549 NSCLC
  GI50: > 100 µM
  TGI: > 100 µM
ACHN renal
  GI50: 93.3 µM
  TGI: > 100 µM
BT-549 breast
  GI50: > 100 µM
  TGI: > 100 µM
CAKI-1 renal
  GI50: 35.7 µM
  TGI: > 100 µM
CCRF-CEM leukemia
  GI50: 79 µM
  TGI: > 100 µM
COLO 205 colon
  GI50: > 100 µM
  TGI: > 100 µM
DU-145 prostate
  GI50: > 100 µM
  TGI: > 100 µM
EKVX NSCLC
  GI50: > 100000 nM
  TGI: > 100 µM
HCC-2998 colon
  GI50: > 100 µM
  TGI: > 100 µM
HCT-116 colon
  GI50: > 100 µM
  TGI: > 100 µM
HCT-15 colon
  GI50: 81 µM
  TGI: > 100 µM
HL-60(TB) leukemia
  GI50: 53.6 µM
  TGI: > 100 µM
HOP-62 NSCLC
  GI50: > 100 µM
  TGI: > 100 µM
HOP-92 NSCLC
  GI50: > 100000 nM
  TGI: > 100 µM
HS 578T breast
  GI50: > 100000 nM
  TGI: > 100 µM
HT29 colon
  GI50: > 100 µM
  TGI: > 100 µM
IGROV1 ovarian
  GI50: > 100 µM
  TGI: > 100 µM
K-562 leukemia
  GI50: 34.9 µM
  TGI: > 100 µM
KM12 colon
  GI50: 36.3 µM
  TGI: > 100 µM
LOX IMVI melanoma
  GI50: > 100 µM
  TGI: > 100 µM
M14 melanoma
  GI50: > 100 µM
  TGI: > 100 µM
MALME-3M melanoma
  GI50: 51.7 µM
  TGI: > 100 µM
MCF7 breast
  GI50: > 100 µM
  TGI: > 100 µM
MDA-MB-231 breast
  GI50: > 100 µM
  TGI: > 100 µM
MDA-MB-435
  GI50: 51.3 µM
  TGI: > 100 µM
MOLT-4 leukemia
  GI50: > 100 µM
  TGI: > 100 µM
NCI-H226 lung
  GI50: > 100 µM
  TGI: > 100 µM
NCI-H23 lung
  GI50: > 100 µM
  TGI: > 100 µM
NCI-H460 lung
  GI50: 34 µM
  TGI: > 100 µM
NCI-H522 lung
  GI50: > 100 µM
  TGI: > 100 µM
NCI/ADR-RES ovarian
  GI50: > 100 µM
  TGI: > 100 µM
OVCAR-3 ovarian
  GI50: > 100 µM
  TGI: > 100 µM
OVCAR-4 ovarian
  GI50: > 100 µM
  TGI: > 100 µM
OVCAR-5 ovarian
  GI50: > 100 µM
  TGI: > 100 µM
OVCAR-8 ovarian
  GI50: > 100 µM
  TGI: > 100 µM
PC-3 prostate
  GI50: > 100 µM
  TGI: > 100 µM
RPMI-8226 leukemia
  GI50: > 100 µM
  TGI: > 100 µM
RXF 393 renal
  GI50: > 100000 nM
  TGI: > 100 µM
SF-268 CNS
  GI50: > 100 µM
  TGI: > 100 µM
SF-295 CNS
  GI50: 26.6 µM
  TGI: > 100 µM
SF-539 CNS
  GI50: > 100 µM
  TGI: > 100 µM
SK-MEL-2 melanoma
  GI50: > 100 µM
  TGI: > 100 µM
SK-MEL-28 melanoma
  GI50: > 100 µM
  TGI: > 100 µM
SK-MEL-5 melanoma
  GI50: 34.3 µM
  TGI: > 100 µM
SK-OV-3 ovarian
  GI50: > 100000 nM
  TGI: > 100 µM
SN12C renal
  GI50: > 100 µM
  TGI: > 100 µM
SNB-19 CNS
  GI50: > 100 µM
  TGI: > 100 µM
SNB-75 CNS
  GI50: > 100 µM
  TGI: > 100 µM
SR leukemia
  GI50: 74.8 µM
  TGI: > 100 µM
SW-620 colon
  GI50: 99 µM
  TGI: > 100 µM
T-47D breast
  GI50: 73.2 µM
  TGI: > 100 µM
TK-10 renal
  GI50: > 100000 nM
  TGI: > 100 µM
U251 CNS
  GI50: > 100 µM
  TGI: > 100 µM
UACC-257 melanoma
  GI50: > 100 µM
  TGI: > 100 µM
UACC-62 melanoma
  GI50: 20.9 µM
  TGI: > 100 µM
UO-31 renal
  GI50: 23.6 µM
  TGI: > 100 µM

## CS(=O)(=O)CCNCc1coc(-c2ccc3ncnc(Nc4ccc(OCc5ccccc5)cc4)c3c2)c1
786-0 renal
  GI50: 4.16 µM
  TGI: 9.12 µM
A498 renal
  GI50: 1490 nM
  TGI: 6.25 µM
A549 NSCLC
  GI50: 5.65 µM
  TGI: > 22 µM
ACHN renal
  GI50: 3.69 µM
  TGI: 17.1 µM
BT-549 breast
  GI50: 10.9 µM
  TGI: > 25 µM
CAKI-1 renal
  GI50: 3.98 µM
  TGI: 13.4 µM
CCRF-CEM leukemia
  GI50: 4.92 µM
  TGI: 14.5 µM
COLO 205 colon
  GI50: 4.78 µM
  TGI: 9.84 µM
DU-145 prostate
  GI50: 3.75 µM
  TGI: > 25 µM
EKVX NSCLC
  GI50: 1250 nM
  TGI: > 25 µM
HCC-2998 colon
  GI50: 4.16 µM
  TGI: 7.91 µM
HCT-116 colon
  GI50: 3.88 µM
  TGI: 7.53 µM
HCT-15 colon
  GI50: 4.15 µM
  TGI: 9.53 µM
HL-60(TB) leukemia
  GI50: 4.15 µM
  TGI: 9.13 µM
HOP-62 NSCLC
  GI50: 5.03 µM
  TGI: 11.1 µM
HOP-92 NSCLC
  GI50: 2620 nM
  TGI: 17.3 µM
HS 578T breast
  GI50: 2450 nM
  TGI: 7.66 µM
HT29 colon
  GI50: 3.4 µM
  TGI: 7.77 µM
IGROV1 ovarian
  GI50: 3.7 µM
  TGI: > 20.7 µM
K-562 leukemia
  GI50: 4.54 µM
  TGI: 11 µM
KM12 colon
  GI50: 4.68 µM
  TGI: 11.9 µM
LOX IMVI melanoma
  GI50: 4.27 µM
  TGI: 8.81 µM
M14 melanoma
  GI50: 4.44 µM
  TGI: 9.11 µM
MALME-3M melanoma
  GI50: 4.71 µM
  TGI: 9.57 µM
MCF7 breast
  GI50: 3.77 µM
  TGI: 12.3 µM
MDA-MB-231 breast
  GI50: 4.15 µM
  TGI: 8.26 µM
MDA-MB-435
  GI50: 4.11 µM
  TGI: 8.23 µM
MOLT-4 leukemia
  GI50: 5.2 µM
  TGI: 16.3 µM
NCI-H226 lung
  GI50: > 12.8 µM
  TGI: > 25 µM
NCI-H23 lung
  GI50: 9.18 µM
  TGI: > 25 µM
NCI-H460 lung
  GI50: 3.86 µM
  TGI: 8.5 µM
NCI-H522 lung
  GI50: 3.32 µM
  TGI: 6.9 µM
NCI/ADR-RES ovarian
  GI50: 9.47 µM
  TGI: > 25 µM
OVCAR-3 ovarian
  GI50: 3.46 µM
  TGI: 13.7 µM
OVCAR-4 ovarian
  GI50: 5.94 µM
  TGI: > 25 µM
OVCAR-5 ovarian
  GI50: 4.22 µM
  TGI: 11.7 µM
OVCAR-8 ovarian
  GI50: 8.66 µM
  TGI: > 25 µM
PC-3 prostate
  GI50: 8.95 µM
  TGI: > 25 µM
RPMI-8226 leukemia
  GI50: 4.86 µM
  TGI: 11.6 µM
RXF 393 renal
  GI50: 2910 nM
  TGI: 7.27 µM
SF-268 CNS
  GI50: 3.35 µM
  TGI: 7.5 µM
SF-295 CNS
  GI50: 4.39 µM
  TGI: 9.19 µM
SF-539 CNS
  GI50: 4.25 µM
  TGI: 8.82 µM
SK-MEL-2 melanoma
  GI50: 4.55 µM
  TGI: 8.92 µM
SK-MEL-28 melanoma
  GI50: 3.83 µM
  TGI: 7.49 µM
SK-MEL-5 melanoma
  GI50: 3.27 µM
  TGI: 6.46 µM
SK-OV-3 ovarian
  GI50: 1710 nM
  TGI: > 16.2 µM
SN12C renal
  GI50: 3.57 µM
  TGI: 8.04 µM
SNB-19 CNS
  GI50: 6.4 µM
  TGI: > 25 µM
SNB-75 CNS
  GI50: 3.92 µM
  TGI: 10 µM
SR leukemia
  GI50: 4.81 µM
  TGI: 12.9 µM
SW-620 colon
  GI50: 4.34 µM
  TGI: 8.34 µM
T-47D breast
  GI50: 3.57 µM
  TGI: 8.03 µM
TK-10 renal
  GI50: 1950 nM
  TGI: 12.2 µM
U251 CNS
  GI50: 4.72 µM
  TGI: > 14.2 µM
UACC-257 melanoma
  GI50: 3.67 µM
  TGI: 7.39 µM
UACC-62 melanoma
  GI50: 4.31 µM
  TGI: 8.18 µM
UO-31 renal
  GI50: 2.86 µM
  TGI: 6.95 µM

Source: PubChem BioAssay (NCI)
